The values below come from US5684018A, “Acyloxyisopropyl carbamates as prodrugs for amine drugs” (Merck & Co., Inc., priority 1994, dated 1997).

A word on the half-life: it is the time needed for the level to fall by half in the phase considered.

Each structure is given as a SMILES string.

The nature of data set [1]: Regeneration of the parent drug by rat plasma hydrolysis of the prodrug. The format is in vitro ADME. Particulars: 37° C., initial prodrug concentration 6.3×10^-5 M, n=2, HPLC. The protocol:
The rate of hydrolysis of the acetoxyisopropyl carbamate prodrug of [3(R)-2-(piperidine-4-yl)ethyl]-2-piperidone-1-[(3R)-methyl-5-ketopentanoic acid]by plasma enzymes was studied by measuring the formation of the parent amine drug at 37° C. in rat plasma. The reaction was initiated by adding an aqueous solution of the carbamate prodrug to the reaction medium pre-equilibrated at 37° C. in a thermostated water bath. The initial concentration of the prodrug in rat plasma was 6.3×10^-5 M. Samples (100 μl) were withdrawn at intervals and mixed with saturated ammonium sulfate (200 μl), vortex mixed for 10 seconds and centrifuged for 5 minutes at 14,000 g to precipitate plasma proteins. The supernatant was injected directly and analyzed by HPLC on a 20 cm Brownlee Spheri-5 RP-18 column combined with a similar 3 cm guard column. The mobile phase used for the analysis was 0.01M K2 HPO4 buffer (adjusted to pH 6.5 with phosphoric acid) containing 3% acetonitrile at a flow rate of 1 mL/min. The retention time under these conditions for the amine drug was approximately 15 minutes. The concentration of the compounds was measured at 210 nm using a variable wavelength. UV detector.

For data set [2] the following is noted: oral administration to rats; cited from earlier work.

Take `CC(=O)OC(C)(C)OC(=O)N1CCC(CC[C@@H]2CCCN(CC(=O)N[C@H](C)CC(=O)O)C2=O)CC1` [acetoxyisopropyl carbamate prodrug, {3(R)-2-{1-[2(Acetoxy)isopropoxycarbonylpiperidine-4yl]-ethyl}piperidone-1}-acetyl-3(R)-methyl-β-alanine]: the half-life at 63 µM in data set [1] turned out to be 32 ± 6 min. Take `CCn1cc(C(=O)O)c(=O)c2cc(F)c(N3CCN(Cc4oc(=O)oc4C)CC3)cc21` [alkylated nofloxacin]: the “regeneration of the parent drug” value in data set [2] is on record as “regenerated the parent drag”.
